Laboratory results as given in PubChem BioAssay AID1963871 (Molecular Pharmacology Branch, DTP, NCI, 2024).

Tested on: KRAS-mutant PDC multicell tumor spheroid viability
Assay: Anticancer human tumor 521955-158-R2-J5-PDC patient-derived pancreatic carcinoma cell line growth inhibition [KRAS2]
Details: for IC50: curve of first compound; for viability, T/C: stronger effect = lower value
Procedure, shortened: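 KRAS-mutant tumor cells were grown as spheroids with HUVEC endothelial cells and human MSCs as stroma. Targeted agents were tested alone and with KRAS pathway inhibitors. Doses started at or near clinical Cmax, or 10 microM, descending half-log.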

[1] = second compound 0.1 µM, first compound 0.01 µM
[2] = second compound 0.1 µM, first compound 0.0316 µM
[3] = second compound 0.1 µM, first compound 0.1 µM
[4] = second compound 0.1 µM, first compound 0.316 µM
[5] = second compound 0.1 µM, first compound 1 µM
[6] = second compound 0.1 µM, first compound 3.16 µM
[7] = second compound 0.316 µM, first compound 0.01 µM
[8] = second compound 0.316 µM, first compound 0.0316 µM
[9] = second compound 0.316 µM, first compound 0.1 µM
[10] = second compound 0.316 µM, first compound 0.316 µM
[11] = second compound 0.316 µM, first compound 1 µM
[12] = second compound 0.316 µM, first compound 3.16 µM
[13] = second compound 1 µM, first compound 0.01 µM
[14] = second compound 1 µM, first compound 0.0316 µM
[15] = second compound 1 µM, first compound 0.1 µM
[16] = second compound 1 µM, first compound 0.316 µM
[17] = second compound 1 µM, first compound 1 µM
[18] = second compound 1 µM, first compound 3.16 µM
[19] = second compound 3.16 µM, first compound 0.01 µM
[20] = second compound 3.16 µM, first compound 0.0316 µM
[21] = second compound 3.16 µM, first compound 0.1 µM
[22] = second compound 3.16 µM, first compound 0.316 µM
[23] = second compound 3.16 µM, first compound 1 µM
[24] = second compound 3.16 µM, first compound 3.16 µM
[25] = second compound 10 µM, first compound 0.01 µM
[26] = second compound 10 µM, first compound 0.0316 µM
[27] = second compound 10 µM, first compound 0.1 µM
[28] = second compound 10 µM, first compound 0.316 µM
[29] = second compound 10 µM, first compound 1 µM
[30] = second compound 10 µM, first compound 3.16 µM
[31] = second compound 0.1 µM, first compound 10 µM
[32] = second compound 0.316 µM, first compound 10 µM
[33] = second compound 1 µM, first compound 10 µM
[34] = second compound 3.16 µM, first compound 10 µM
[35] = second compound 10 µM, first compound 10 µM
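Further: viability read after seven days of drug exposure.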

SMILES | IC50 (second compound 0.1 µM) [nM] | IC50 (second compound 0.316 µM) [nM] | IC50 (second compound 1 µM) [nM] | IC50 (second compound 3.16 µM) [nM] | IC50 (second compound 10 µM) [nM] | viability, T/C [2] [%] | viability, T/C [3] [%] | viability, T/C [4] [%] | viability, T/C [5] [%] | viability, T/C [6] [%] | viability, T/C [8] [%] | viability, T/C [9] [%] | viability, T/C [10] [%] | viability, T/C [11] [%] | viability, T/C [14] [%] | viability, T/C [15] [%] | viability, T/C [20] [%] | viability, T/C [21] [%] | viability, T/C [26] [%] | viability, T/C [27] [%] | also measured
CC(=O)OC12COC1CC(O)C1(C)C(=O)C(O)C3=C(C)C(OC(=O)C(O)C(NC(=O)OC(C)(C)C)c4ccccc4)CC(O)(C(OC(=O)c4ccccc4)C21)C3(C)C (stereo not given) + CNCc1ccccc1-c1csc(C(C)Nc2nc(C)nc3cc(OC)c(OC)cc23)c1 | < 10 | < 10 | < 10 | < 10 | < 10 | 16.2 | 15.3 | 14.8 | 16.6 | 20.3 | 16.6 | 16.7 | 15.8 | 19.6 | 13.2 | 13.2 | 13.9 | 0.05 | 0.14 | 0.11 | viability, T/C [1]: 28.2%; viability, T/C [7]: 20.4%; viability, T/C [12]: 23.6%; viability, T/C [13]: 23%; viability, T/C [16]: 13.2%; viability, T/C [17]: 19.9%; viability, T/C [18]: 20%; viability, T/C [19]: 0.16%; viability, T/C [22]: 0.05%; viability, T/C [23]: 0.1%; viability, T/C [24]: 17%; viability, T/C [25]: 0.17%; viability, T/C [28]: 0.11%; viability, T/C [29]: 0.12%; viability, T/C [30]: 0.34%
CN(C)C/C=C/C(=O)Nc1cc2c(Nc3ccc(F)c(Cl)c3)ncnc2cc1O[C@H]1CCOC1 + CNCc1ccccc1-c1csc(C(C)Nc2nc(C)nc3cc(OC)c(OC)cc23)c1 | > 100 | > 100 | > 100 | 2.23 | < 0.316 | 88.9 | 77.3 |  |  |  | 98.5 | 64.4 |  |  | 97 | 97.7 | 85.9 | 1 | 0.23 | 0.24 | viability, T/C (second compound 0.1 µM, first compound 0.000316 µM): 107%; viability, T/C (second compound 0.1 µM, first compound 0.001 µM): 104%; viability, T/C (second compound 0.1 µM, first compound 0.00316 µM): 93.3%; viability, T/C [1]: 91%; viability, T/C (second compound 0.316 µM, first compound 0.000316 µM): 110%; viability, T/C (second compound 0.316 µM, first compound 0.001 µM): 93.5%; viability, T/C (second compound 0.316 µM, first compound 0.00316 µM): 81.1%; viability, T/C [7]: 92.6%; viability, T/C (second compound 1 µM, first compound 0.000316 µM): 113%; viability, T/C (second compound 1 µM, first compound 0.001 µM): 120%; viability, T/C (second compound 1 µM, first compound 0.00316 µM): 100%; viability, T/C [13]: 100%; viability, T/C (second compound 3.16 µM, first compound 0.000316 µM): 114%; viability, T/C (second compound 3.16 µM, first compound 0.001 µM): 116%; viability, T/C (second compound 3.16 µM, first compound 0.00316 µM): 0.23%; viability, T/C [19]: 0.26%; viability, T/C (second compound 10 µM, first compound 0.000316 µM): 0.27%; viability, T/C (second compound 10 µM, first compound 0.001 µM): 0.27%; viability, T/C (second compound 10 µM, first compound 0.00316 µM): 0.18%; viability, T/C [25]: 0.16%
COC(=O)c1ccc2c(C(=Nc3ccc(N(C)C(=O)CN4CCN(C)CC4)cc3)c3ccccc3)c(O)[nH]c2c1 + CNCc1ccccc1-c1csc(C(C)Nc2nc(C)nc3cc(OC)c(OC)cc23)c1 | 2260 | 1800 | 1960 | < 31.6 | < 31.6 | 87.3 | 111 | 103 | 123 | 26.9 | 90 | 101 | 100 | 107 | 97.1 | 103 | 0.52 | 0.17 | 0.14 | 0.13 | viability, T/C [31]: 1.42%; viability, T/C [12]: 2.22%; viability, T/C [32]: 0.15%; viability, T/C [16]: 115%; viability, T/C [17]: 95.3%; viability, T/C [18]: 17.5%; viability, T/C [33]: 0.14%; viability, T/C [22]: 0.16%; viability, T/C [23]: 0.15%; viability, T/C [24]: 0.07%; viability, T/C [34]: 0.59%; viability, T/C [28]: 0.13%; viability, T/C [29]: 0.13%; viability, T/C [30]: 0.12%; viability, T/C [35]: 0.19%
O=C(c1cc(Cc2n[nH]c(=O)c3ccccc23)ccc1F)N1CCN(C(=O)C2CC2)CC1 + CNCc1ccccc1-c1csc(C(C)Nc2nc(C)nc3cc(OC)c(OC)cc23)c1 | > 10000 | > 10000 | > 10000 | < 31.6 | < 31.6 | 93.9 | 106 | 91 | 88.3 | 72.7 | 86.7 | 100 | 94.5 | 88.8 | 92.3 | 98.1 | 0.34 | 0.17 | 0.16 | 0.14 | viability, T/C [31]: 55.7%; viability, T/C [12]: 72.1%; viability, T/C [32]: 54.3%; viability, T/C [16]: 99.6%; viability, T/C [17]: 94.5%; viability, T/C [18]: 70.7%; viability, T/C [33]: 51.9%; viability, T/C [22]: 0.17%; viability, T/C [23]: 0.65%; viability, T/C [24]: 0.18%; viability, T/C [34]: 0.2%; viability, T/C [28]: 0.16%; viability, T/C [29]: 0.16%; viability, T/C [30]: 0.18%; viability, T/C [35]: 0.23%
